31 molecules from patent US7723368B2, “Amino-5-[4-(difluoromethoxy)phenyl]-5-phenylimidazolone compounds for the inhibition of beta-secretase” (Wyeth LLC, priority 2007, dated 2010) can be followed below.

Sequence of human BACE1 (P56817 46-501): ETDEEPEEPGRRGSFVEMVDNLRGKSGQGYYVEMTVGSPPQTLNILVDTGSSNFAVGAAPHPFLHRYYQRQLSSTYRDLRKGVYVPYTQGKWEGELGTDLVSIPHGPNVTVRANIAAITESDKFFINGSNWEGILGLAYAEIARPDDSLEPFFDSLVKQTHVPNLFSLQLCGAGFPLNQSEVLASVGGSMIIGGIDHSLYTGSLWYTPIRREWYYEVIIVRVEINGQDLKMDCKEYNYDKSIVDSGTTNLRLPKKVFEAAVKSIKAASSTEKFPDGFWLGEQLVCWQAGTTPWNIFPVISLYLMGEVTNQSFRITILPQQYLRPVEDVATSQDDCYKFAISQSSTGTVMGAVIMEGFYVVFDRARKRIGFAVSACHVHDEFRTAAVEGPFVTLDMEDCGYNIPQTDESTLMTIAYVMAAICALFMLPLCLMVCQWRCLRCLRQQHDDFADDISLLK

In one assay the target is human BACE1 (Homo sapiens, UniProt P56817). Briefly: BACE1 fluorescent kinetic assay (cleavage of peptide substrate WABC-6). The class given is biochemical. The note with it: Activity Table, Examples 1-108; 10 nM enzyme, 25 μM substrate WABC-6, pH 4.5, room temperature. As for the experimental part:
Evaluation of BACE1 Binding Affinity of Test Compounds
Fluorescent Kinetic Assays
Dilution and mixing steps: total reaction volume: 100 μL
100 μM substrate dilution in 1×PBS was prepared, and
Fluorescence Readings: Readings at λex 320 nm and λem 420 nm are taken every 40 sec for 30 min at room temperature and the linear slope for substrate cleavage rate (vi) determined.
As usually defined, the IC50 is the midpoint of a concentration-inhibition curve. As to `Cc1cccc(C2(c3ccc(OC(F)F)cc3)N=C(N)N(C)C2=O)c1` (stereo not shown) [Example 74, 2-Amino-5-[4-(difluoromethoxy)phenyl]-3-methyl-5-(3-methylphenyl)-3,5-dihydro-4H-imidazol-4-one], the IC50 was 0.11 to 1 µM.

The molecule `CC=Cc1cc(C2(c3ccc(OC(F)F)cc3)N=C(N)N(C)C2=O)ccc1F` (stereo not shown) [Example 75A, 2-amino-5-[4-(difluoromethoxy)phenyl]-5-(4-fluoro-3-prop-1-en-1-ylphenyl)-3-methyl-3,5-dihydro-4H-imidazol-4-one] showed an IC50 of 0.11 to 1 µM.

Regarding `C/C=C\c1cc(C2(c3ccc(OC(F)F)cc3)N=C(N)N(C)C2=O)ccc1F` (stereo not shown) [Example 75B, 2-amino-5-[4-(difluoromethoxy)phenyl]-5-{4-fluoro-3-[(1Z)-prop-1-en-1-yl]phenyl}-3-methyl-3,5-dihydro-4H-imidazol-4-one], the IC50 was 0.11 to 1 µM.

As to `C/C=C/c1cc(C2(c3ccc(OC(F)F)cc3)N=C(N)N(C)C2=O)ccc1F` (stereo not shown) [Example 75C, 2-amino-5-[4-(difluoromethoxy)phenyl]-5-{4-fluoro-3-[(1E)-prop-1-en-1-yl]phenyl}-3-methyl-3,5-dihydro-4H-imidazol-4-one], the IC50 is more than 1 µM.

Molecule `C/C=C\c1cc([C@]2(c3ccc(OC(F)F)cc3)N=C(N)N(C)C2=O)ccc1F` [Example 76A, (5S)-2-amino-5-[4-(difluoromethoxy)phenyl]-5-{4-fluoro-3-[(1Z)-prop-1-en-1-yl]phenyl}-3-methyl-3,5-dihydro-4H-imidazol-4-one] displayed an IC50 of more than 1 µM.

For `C/C=C\c1cc([C@@]2(c3ccc(OC(F)F)cc3)N=C(N)N(C)C2=O)ccc1F` [Example 76B, (5R)-2-amino-5-[4-(difluoromethoxy)phenyl]-5-{4-fluoro-3-[(1Z)-prop-1-en-1-yl]phenyl}-3-methyl-3,5-dihydro-4H-imidazol-4-one], the IC50 is more than 1 µM.

As for `C/C=C/c1cc([C@]2(c3ccc(OC(F)F)cc3)N=C(N)N(C)C2=O)ccc1F` [Example 77A, (5S)-2-amino-5-[4-(difluoromethoxy)phenyl]-5-{4-fluoro-3-[(1E)-prop-1-en-1-yl]phenyl}-3-methyl-3,5-dihydro-4H-imidazol-4-one], the IC50 is more than 1 µM.

Regarding `C/C=C/c1cc([C@@]2(c3ccc(OC(F)F)cc3)N=C(N)N(C)C2=O)ccc1F` [Example 77B, (5R)-2-amino-5-[4-(difluoromethoxy)phenyl]-5-{4-fluoro-3-[(1E)-prop-1-en-1-yl]phenyl}-3-methyl-3,5-dihydro-4H-imidazol-4-one], the IC50 is less than 0.1 µM.

As to `CN1C(=O)C(c2ccc(OC(F)F)cc2)(c2cccc(O)c2)N=C1N` (stereo not shown) [Example 81, 2-Amino-5-[4-(difluoromethoxy)phenyl]-5-(3hydroxyphenyl)-3-methyl-3,5-dihydro-4H-imidazol-4-one], the IC50 was 0.11 to 1 µM.

As for `CN1C(=O)C(c2ccc(OC(F)F)cc2)(c2ccc(F)c(N3CCOCC3)c2)N=C1N` (stereo not shown) [Example 86, 2-amino-4-(4-(difluoromethoxy)phenyl)-4-(4-fluoro-3-morpholinophenyl)-1-methyl-1H-imidazol-5(4H)-one], the IC50 was in the range of 0.11 to 1 µM.

As to `C=CC#Cc1cc(C2(c3ccc(OC(F)F)cc3)N=C(N)N(C)C2=O)ccc1F` (stereo not shown) [Example 87, 2-amino-4-(3-(but-3-en-1-ynyl)-4-fluorophenyl)-4-(4-(difluoromethoxy)phenyl)-1-methyl-1H-imidazol-5(4H)-one], the IC50 is less than 0.1 µM.

In the case of `CN1C(=O)C(c2ccc(OC(F)F)cc2)(c2cccc(Cc3ccco3)c2)N=C1N` (stereo not shown) [Example 88, 2-amino-4-(4-(difluoromethoxy)phenyl)-4-(3-(furan-2-ylmethyl)phenyl)-1-methyl-1H-imidazol-5(4H)-one], the IC50 was 0.11 to 1 µM.

With `CN1C(=O)C(c2ccc(OC(F)F)cc2)(c2ccc(F)c(OCCC(F)F)c2)N=C1N` (stereo not shown) [Example 92, 2-Amino-5-[4-(difluoromethoxy)phenyl]-5-[3-(3,3-difluoropropoxy)-4-fluorophenyl]-3-methyl-3,5-dihydro-4H-imidazol-4-one], the IC50 is less than 0.1 µM.

In the case of `CN1C(=O)[C@](c2ccc(OC(F)F)cc2)(c2ccc(F)c(OCCC(F)F)c2)N=C1N` [Example 93, (5S)-2-Amino-5-[4-(difluoromethoxy)phenyl]-5-[3-(3,3-difluoropropoxy)-4-fluorophenyl]-3-methyl-3,5-dihydro-4H-imidazol-4-one], the IC50 was 0.11 to 1 µM.

On to `CN1C(=O)[C@@](c2ccc(OC(F)F)cc2)(c2ccc(F)c(OCCC(F)F)c2)N=C1N` [Example 94, (5R)-2-Amino-5-[4-(difluoromethoxy)phenyl]-5-[3-(3,3-difluoropropoxy)-4-fluorophenyl]-3-methyl-3,5-dihydro-4H-imidazol-4-one], for which the IC50 is less than 0.1 µM.

Turning to `Cc1cccc(C2(c3ccc(OC(F)F)cc3)N=C(N)N(C)C2=O)c1` (stereo not shown) [Example 95, 2-Amino-5-[4-(difluoromethoxy)phenyl]-3-methyl-5-(3-methylphenyl)-3,5-dihydro-4H-imidazol-4-one], the IC50 was in the range of 0.11 to 1 µM.

Turning to `CCOCCC#Cc1cccc(C2(c3ccc(OC(F)F)cc3)N=C(N)N(C)C2=O)c1` (stereo not shown) [Example 96, 2-Amino-5-[4-(difluoromethoxy)phenyl]-5-[3-(4-ethoxybut-1-yn-1-yl)phenyl]-3-methyl-3,5-dihydro-4H-imidazol-4-one], the half-maximal inhibitory concentration (IC50) was less than 0.1 µM.

Turning to `CN1C(=O)C(c2ccc(OC(F)F)cc2)(c2ccc(F)c(C#CCF)c2)N=C1N` (stereo not shown) [Example 99, 2-amino-5-[4-(difluoromethoxy)phenyl]-5-[4-fluoro-3-(3-fluoroprop-1-yn-1-yl)phenyl]-3-methyl-3,5-dihydro-4H-imidazol-4-one], the IC50 is less than 0.1 µM.

In turn, `CN1C(=O)C(c2ccc(OC(F)F)cc2)(c2ccc(F)c(C#CCCF)c2)N=C1N` (stereo not shown) [Example 102, 2-amino-5-[4-(difluoromethoxy)phenyl]-5-[4-fluoro-3-(4-fluorobut-1-yn-1-yl)phenyl]-3-methyl-3,5-dihydro-4H-imidazol-4-one] showed an IC50 of less than 0.1 µM.

Regarding `CN1C(=O)[C@](c2ccc(OC(F)F)cc2)(c2ccc(F)c(C#CCCF)c2)N=C1N` [Example 103, (5S)-2-amino-5-[4-(difluoromethoxy)phenyl]-5-[4-fluoro-3-(4-fluorobut-1-yn-1-yl)phenyl]-3-methyl-3,5-dihydro-4H-imidazol-4-one], the IC50 was more than 1 µM.

In turn, `CN1C(=O)[C@@](c2ccc(OC(F)F)cc2)(c2ccc(F)c(C#CCCF)c2)N=C1N` [Example 104, (5R)-2-amino-5-[4-(difluoromethoxy)phenyl]-5-[4-fluoro-3-(4-fluorobut-1-yn-1-yl)phenyl]-3-methyl-3,5-dihydro-4H-imidazol-4-one] displayed an IC50 of less than 0.1 µM.

With `CN1C(=O)[C@@](c2ccc(OC(F)F)cc2)(c2ccc(F)c(C#CCF)c2)N=C1N` [Example 107, (5R)-2-amino-5-[4-(difluoromethoxy)phenyl]-5-[4-fluoro-3-(3-fluoroprop-1-yn-1-yl)phenyl]-3-methyl-3,5-dihydro-4H-imidazol-4-one], the IC50 is less than 0.1 µM.

Consider `CN1C(=O)[C@](c2ccc(OC(F)F)cc2)(c2ccc(F)c(C#CCF)c2)N=C1N` [Example 108, (5S)-2-amino-5-[4-(difluoromethoxy)phenyl]-5-[4-fluoro-3-(3-fluoroprop-1-yn-1-yl)phenyl]-3-methyl-3,5-dihydro-4H-imidazol-4-one], for which the IC50 was more than 1 µM.

The assay is the same for the next values; noted with them: Examples 109-141; 10 nM enzyme, 25 μM substrate WABC-6, pH 4.5, room temperature.
Molecule `CCOC/C=C(\C)c1cccc(C2(c3ccc(OC(F)F)cc3)N=C(N)N(C)C2=O)c1` (stereo not shown) [Example 109, 2-amino-5-[4-(difluoromethoxy)phenyl]-5-{3-[(1E)-3-ethoxy-1-methylprop-1-en-1-yl]phenyl}-3-methyl-3,5-dihydro-4H-imidazol-4-one] registered an IC50 of 0.11 to 1 µM.

In turn, `C=CC[C@H](C)c1cccc(C2(c3ccc(OC(F)F)cc3)N=C(N)N(C)C2=O)c1` (stereo partly drawn) [Example 110, 2-amino-5-[4-(difluoromethoxy)phenyl]-3-methyl-5-{3-[(1S)-1-methylbut-3-en-1-yl]phenyl}-3,5-dihydro-4H-imidazol-4-one] displayed an IC50 of 0.11 to 1 µM.

In turn, `COCCC(C)c1cccc(C2(c3ccc(OC(F)F)cc3)N=C(N)N(C)C2=O)c1` (stereo not shown) [Example 111, 2-amino-5-[4-(difluoromethoxy)phenyl]-5-[3-(3-methoxy-1-methylpropyl)phenyl]-3-methyl-3,5-dihydro-4H-imidazol-4-one] displayed an IC50 of more than 1 µM.

On to `CCOCCC(C)c1cccc(C2(c3ccc(OC(F)F)cc3)N=C(N)N(C)C2=O)c1` (stereo not shown) [Example 112, 2-amino-5-[4-(difluoromethoxy)phenyl]-5-[3-(3-ethoxy-1-methylpropyl)phenyl]-3-methyl-3,5-dihydro-4H-imidazol-4-one], for which the IC50 is more than 1 µM.

Take `Cc1cc2cc(C3(c4ccc(OC(F)F)cc4)N=C(N)N(C)C3=O)ccc2o1` (stereo not shown) [Example 113, 2-amino-5-[4-(difluoromethoxy)phenyl]-3-methyl-5-(2-methyl-1-benzofuran-5-yl)-3,5-dihydro-4H-imidazol-4-one]: the IC50 is more than 1 µM.

In turn, `CN1C(=O)C(c2ccc(OC(F)F)cc2)(c2cccc(N)c2)N=C1N` (stereo not shown) [Example 115, 2-amino-5-(3-aminophenyl)-5-[4-(difluoromethoxy)phenyl]-3-methyl-3,5-dihydro-4H-imidazol-4-one] had an IC50 of more than 1 µM.

Molecule `CC(=O)Nc1cccc(C2(c3ccc(OC(F)F)cc3)N=C(N)N(C)C2=O)c1` (stereo not shown) [Example 116, N-(3-{2-amino-4-[4-(difluoromethoxy)phenyl]-1-methyl-5-oxo-4,5-dihydro-1H-imidazol-4-yl}phenyl)acetamide] returned a half-maximal inhibitory concentration (IC50) of 0.11 to 1 µM.

`CN1C(=O)C(c2ccc(OC(F)F)cc2)(c2cccc(NC(=O)c3ccc4c(c3)CCO4)c2)N=C1N` (stereo not shown) [Example 117, N-(3-{2-amino-4-[4-(difluoromethoxy)phenyl]-1-methyl-5-oxo-4,5-dihydro-1H-imidazol-4-yl}phenyl)-2,3-dihydro-1-benzofuran-5-carboxamide] registered an IC50 of less than 0.1 µM.
